Laboratory results taken from paper PMC12122562, “Phase 1 studies of the indenoisoquinolines LMP776 and LMP744 in patients with solid tumors and lymphomas” (Cancer Chemotherapy and Pharmacology, 2025).

Molecular target: T1, TOP1 (Homo sapiens, UniProt P11387)
T1 construct: paired pre-treatment and on-treatment tumor biopsies (C1D2, 2–4 h after dosing) from 6 patients receiving LMP744 at the MTD; from tissue; host or cells: core needle tumor biopsies from patients (LMP744 expansion cohort)
T1 sequence (P11387 1-765): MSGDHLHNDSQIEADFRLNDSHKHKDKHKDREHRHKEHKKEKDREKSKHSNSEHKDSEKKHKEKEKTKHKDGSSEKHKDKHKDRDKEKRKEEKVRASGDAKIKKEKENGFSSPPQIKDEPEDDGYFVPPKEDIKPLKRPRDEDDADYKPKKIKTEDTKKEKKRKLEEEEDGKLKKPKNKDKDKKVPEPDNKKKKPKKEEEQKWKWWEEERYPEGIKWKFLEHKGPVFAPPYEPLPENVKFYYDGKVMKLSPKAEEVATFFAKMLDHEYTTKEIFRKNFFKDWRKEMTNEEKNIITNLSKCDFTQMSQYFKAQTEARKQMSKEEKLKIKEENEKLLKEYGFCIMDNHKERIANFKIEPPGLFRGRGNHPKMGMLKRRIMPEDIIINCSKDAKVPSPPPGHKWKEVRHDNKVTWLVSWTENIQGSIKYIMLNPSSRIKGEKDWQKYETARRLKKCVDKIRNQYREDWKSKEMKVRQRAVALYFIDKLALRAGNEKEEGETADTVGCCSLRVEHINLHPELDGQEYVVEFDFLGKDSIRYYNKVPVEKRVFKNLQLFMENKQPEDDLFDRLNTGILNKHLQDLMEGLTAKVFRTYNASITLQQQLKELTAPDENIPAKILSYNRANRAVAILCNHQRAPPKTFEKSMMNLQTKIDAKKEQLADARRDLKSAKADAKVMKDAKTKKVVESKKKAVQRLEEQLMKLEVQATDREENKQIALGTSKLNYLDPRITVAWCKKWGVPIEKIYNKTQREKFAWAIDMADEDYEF
Test: qIF of paired tumor biopsies: nuclear TOP1
Type: in vivo
Text: The LMP744 protocol collected pre-treatment (baseline) and on-treatment paired biopsies from patients in the expansion cohort. Core needle tumor biopsies (18-gauge) were collected and flash-frozen at point of collection per NCI SOPs (https://dctd.cancer.gov/ResearchResources/biomarkers/docs/par/SOP340507_Biopsy_Frozen.pdf) as described to preserve labile post-translational modifications such as phosphorylation. Biopsy pairs were thawed in formalin, fixed in paraffin embedded together with control tissues following NCI SOP340550 (https://dctd.cancer.gov/ResearchResources/biomarkers/DDR3/SOP340550_Biopsy_Section_Testis_Jejunum_Controls.pdf). TOP1 and TOP1cc were measured with a cocktail containing custom-conjugated rabbit monoclonal antibody anti-TOP1-DIG (Abcam, EPR5376 (2)) and mouse monoclonal antibody anti-TOP1cc (clone 1.1A [34, 35], EMD Millipore) that were detected with reporter secondary antibodies AlexaFluor-647 IgG fraction monoclonal mouse anti-digoxin (Jackson ImmunoResearch) and goat/anti-mouse AlexaFluor-488, respectively. Phosphorylated KAP1 (pKAP1, phosphorylated at S824) was measured using custom-conjugated pKAP1-pS824-DNP (Abcam, EPR5248) and detected with AlexaFluor-488 conjugated with anti-dinitrophenyl-KLH rabbit IgG Antibody Fraction (DNP-488, ThermoFisher). Validated immunofluorescence assays (IFAs) were used to measure levels of γH2AX, phosphorylated NBS1 (pNBS1, phosphorylated at Ser343), and RAD51 [15, 17, 19, 29]. Antibodies in all clinical immunofluorescence staining protocols were used as a cocktail with β-catenin as a tumor marker as previously described. After staining with primary antibodies, washing, and staining with secondary antibodies, slides were rinsed in 1X PBS and blotted to remove excess liquid. Slides were cured overnight with Prolong Gold Antifade Reagent (Invitrogen) in the dark and imaged the following day. Confocal images (12-bit) were acquired at 20X using a Nikon A1 scan head on a Nikon 90i microscope at 0.24 µm/pixel to measure nuclear TOP1 and nuclear foci of TOP1cc and RAD51. […] TOP1, γH2AX, pNBS1, and pKAP1 were measured as the percentage of DAPI-stained tumor cell nuclear area that was positive for the biomarker (% NAP); RAD51 [19] and TOP1cc was measured as a function of the percentage of nuclei with ≥ 5 foci (RAD51) or ≥ 19 foci (TOP1cc). Apoptosis was measured using a validated IFA of tumor cells positive for both cCasp3 blebbing in the cytoplasm and γH2AX in the nucleus. Anti-SLFN11 rabbit monoclonal antibody (Cell Signaling Technology, clone D8W1B) was detected by immunohistochemistry (IHC) using Bond Polymer Detection kit (Leica) and scanned in 20X widefield Aperio (Leica), and the distribution of staining intensity of tumor cell nuclei graded as 0, 1 + , 2 + or 3 + was converted into an H-score. […]

COc1cc2c3c(n(CCCNCCO)c(=O)c2cc1OC)-c1cc2c(cc1C3=O)OCO2 [LMP744]
Nuclear TOP1, change in the biopsy cohort (6 patients at MTD, P = 0.1448): no significant changes | Nuclear TOP1 (patient 29, MTD, C1D2): neither biomarker changed with treatment | Nuclear TOP1 (patient 31, MTD, C1D2): decreased nearly to background levels | Decrease of nuclear TOP1 (patient 33, MTD, C1D2): 57%
